Experimental findings from US8420657B2 (Novartis AG, priority 2008, dated 2013) are described below.

The target in one test is T1, GST-JAK2(808-1132) (Homo sapiens, UniProt O60674).
T1 construct: GST-JAK2(808-1132); purchased Invitrogen (Carlsbad, USA) #4288
Put plainly: JAK2 kinase assay (Caliper mobility shift, LabChip 3000). The test is classed as biochemical. The gist of the method: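 Eight-point compound series (final 10–0.003 μM) tested on purchased GST-JAK2 kinase domain (808-1132). Peptide FITC-JAK3tide plus ATP reacted 60 min, 30 °C, then quenched with EDTA; turnover from charge-based separation of substrate and product.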

The subject of test [1] is JAK1/JAK2-dependent nuclear translocation of STAT1-GFP in HT1080 fibrosarcoma cells. The experiment in a line: STAT1 nuclear translocation assay (Cellomics), IFN-γ stimulated HT1080 STAT1-GFP cells. The format is cell-based. Particulars: Homo sapiens, HT-1080, STAT1 translocation pathway. In a few lines: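 IC50 derived from percent nuclear STAT1-GFP translocation, computed from nuclear minus cytoplasmic GFP intensity against untreated baseline and DMSO-stimulated control. Stable HT1080 STAT1-GFP cells received compound (0.003–10 μM, 0.1% DMSO) 30 min ahead of a 2 h 100 ng/ml IFN-γ stimulus, then fixation and Hoechst nuclear masking.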

T1 sequence (O60674 808-1132): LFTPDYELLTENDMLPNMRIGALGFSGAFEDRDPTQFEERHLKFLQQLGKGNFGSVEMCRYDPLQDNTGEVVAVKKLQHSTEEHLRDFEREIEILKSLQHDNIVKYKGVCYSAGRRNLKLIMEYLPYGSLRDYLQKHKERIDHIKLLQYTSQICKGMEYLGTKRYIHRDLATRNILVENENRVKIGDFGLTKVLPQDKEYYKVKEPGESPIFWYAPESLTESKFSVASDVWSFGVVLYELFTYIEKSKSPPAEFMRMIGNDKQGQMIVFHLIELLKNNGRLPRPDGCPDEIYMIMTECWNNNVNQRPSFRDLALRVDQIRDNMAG

For `COCc1ccc(Nc2ncc3ccn(-c4ccc(S(C)(=O)=O)cc4)c3n2)cc1` [Example 54, [7-(4-Methanesulfonyl-phenyl)-7H-pyrrolo[2,3-d]pyrimidin-2-yl]-(4-methoxymethyl-phenyl)-amine], the IC50 on GST-JAK2(808-1132) is 0.0044 µM; in test [1], 3.11 µM.
With `CC(=O)c1ccc(-n2ccc3cnc(Nc4ccc(OC(C)C)cc4)nc32)cc1` [Example 86, 11-{4-[2-(4-Isopropoxy-phenylamino)-pyrrolo[2,3-d]pyrimidin-7-yl]-phenyl}-ethanone], the IC50 on GST-JAK2(808-1132) was 0.008 µM; in test [1] it was 13 µM.
For `Cc1cc(Nc2ncc3ccn(-c4ccc(C5(C(=O)N6CCN(C)CC6)CC5)cc4)c3n2)ccc1F` [Example 122, (1-{4-[2-(4-Fluoro-3-methyl-phenylamino)-pyrrolo[2,3-d]pyrimidin-7-yl]-phenyl}-cyclopropyl)-(4-methyl-piperazin-1-yl)-methanone] the same measures were 0.0033 µM and 0.165 µM.
On to `Cc1cc(Nc2ncc3ccn(-c4ccc(C(=O)N5CCOCC5)c(Cl)c4)c3n2)ccc1F` [Example 90, {2-Chloro-4-[2-(4-fluoro-3-methyl-phenylamino)-pyrrolo[2,3-d]pyrimidin-7-yl]-phenyl}-morpholin-4-yl-methanone], for which the IC50 on GST-JAK2(808-1132) is 0.0034 µM; in test [1] it was 0.715 µM.
For `CCN1CCCC1CNC(=O)c1cc(Nc2ncc3ccn(-c4ccc(S(C)(=O)=O)cc4)c3n2)ccc1F` (stereo not shown) [Example 78, N-(1-Ethyl-pyrrolidin-2-ylmethyl)-2-fluoro-5-[7-(4-methanesulfonyl-phenyl)-7H-pyrrolo[2,3-d]pyrimidin-2-ylamino]-benzamide] the same measures were 0.029 µM and 0.545 µM.
Take `O=C(c1ccc(Nc2ncc3ccn(-c4ccc(CN5CCOCC5)c(Cl)c4)c3n2)cc1)N1CCOCC1` [Example 175, {4-[7-(3-Chloro-4-morpholin-4-ylmethyl-phenyl)-7H-pyrrolo[2,3-d]pyrimidin-2-ylamino]-phenyl}-morpholin-4-yl-methanone]: the IC50 on GST-JAK2(808-1132) is below 0.003 µM; in test [1], 0.275 µM.
`COc1cc(Nc2ncc3cc(C)n(-c4ccc(CN5CCOCC5)c(F)c4)c3n2)ccc1F` [Example 164, (4-Fluoro-3-methoxy-phenyl)-[7-(3-fluoro-4-morpholin-4-ylmethyl-phenyl)-6-methyl-7H-pyrrolo[2,3-d]pyrimidin-2-yl]-amine]: the IC50 at GST-JAK2(808-1132) was 0.23 µM; in test [1] it was 10.7 µM.
For `Cc1ccc(Nc2ncc3ccn(-c4ccc(C(=O)N5CCS(=O)(=O)CC5)c(F)c4)c3n2)cc1C` [Example 291, {4-[2-(3,4-Dimethyl-phenylamino)-pyrrolo[2,3-d]pyrimidin-7-yl]-2-fluoro-phenyl}-(1,1-dioxido-thiomorpholin-4-yl)-methanone] the same measures were below 0.003 µM and 0.054 µM.
Regarding `O=C(c1ccc(Nc2ncc3ccn(-c4cc(F)c(CN5CCS(=O)(=O)CC5)c(F)c4)c3n2)cc1)N1CCOCC1` [Example 187, (4-{7-[4-(1,1-Dioxido-thiomorpholin-4-ylmethyl)-3,5-difluoro-phenyl]-7H-pyrrolo[2,3-d]pyrimidin-2-ylamino}-phenyl)-morpholin-4-yl-methanone], the IC50 on GST-JAK2(808-1132) was below 0.003 µM; in test [1], 0.055 µM.
For `Cc1ccc(Nc2ncc3ccn(-c4ccc(C(=O)N5CCOCC5)c(F)c4)c3n2)cc1C` [Example 152, {4-[2-(3,4-Dimethyl-phenylamino)-pyrrolo[2,3-d]pyrimidin-7-yl]-2-fluoro-phenyl}-morpholin-4-yl-methanone] the same measures were 0.0035 µM and 0.168 µM.
In the same order, the values of `CN1CCN(C(=O)c2ccc(Nc3ncc4ccn(-c5cc(F)c(CN6CCOCC6)c(F)c5)c4n3)cc2C(F)(F)F)CC1` [Example 201, {4-[7-(3. 5-Difluoro-4-morpholin-4-ylmethyl-phenyl)-7H-pyrrolo[2,3-d]pyrimidin-2-ylamino]-2-trifluoromethyl-phenyl}-(4-methyl-piperazin-1-yl)-methanone] are below 0.003 µM and 0.199 µM.
In the same order, the values of `Fc1cc(-n2ccc3cnc(Nc4ccc(N5CCNC6(CC6)C5)nc4)nc32)cc(F)c1CN1CCOCC1` [Example 270, [6-(4,7-Diaza-spiro[2.5]oct-7-yl)-pyridin-3-yl]-[7-(3,5-difluoro-4-morpholin-4-ylmethyl-phenyl)-7H-pyrrolo[2,3-d]pyrimidin-2-yl]-amine] are 0.0043 µM and 0.035 µM.
On to `CC(C)Oc1ccc(Nc2ncc3ccn(-c4ccc(C(=O)N5CCOCC5)c(Cl)c4)c3n2)cc1` [Example 99, {2-Chloro-4-[2-(4-isopropoxy-phenylamino)-pyrrolo[2,3-d]pyrimidin-7-yl]-phenyl}-morpholin-4-yl-methanone], for which the IC50 worked out at 0.0039 µM at GST-JAK2(808-1132) and 0.555 µM in test [1].
Turning to `CCN1CCN(Cc2ccc(-n3ccc4cnc(Nc5ccc(C)c(Cl)c5)nc43)cc2F)CC1` [Example 120, (3-Chloro-4-methyl-phenyl)-{7-[4-(4-ethyl-piperazin-1-ylmethyl)-3-fluoro-phenyl]-7H-pyrrolo[2,3-d]pyrimidin-2-yl}-amine], the IC50 worked out at 0.155 µM on GST-JAK2(808-1132) and 7.85 µM in test [1].
For `Cc1ccc(Nc2ncc3ccn(-c4ccc(C(=O)NCCN5CCOCC5)c(F)c4)c3n2)cc1C` [Example 297, 4-[2-(3,4-Dimethyl-phenylamino)-pyrrolo[2,3-d]pyrimidin-7-yl]-2-fluoro-N-(2-morpholin-4-yl-ethyl)-benzamide] the same measures were 0.03 µM and 2.15 µM.
For `CC(C)Oc1ccc(Nc2ncc3ccn(-c4cc(F)c(C(=O)N5CCOCC5)c(F)c4)c3n2)cc1` [Example 82, {2,6-Difluoro-4-[2-(4-isopropoxy-phenylamino)-pyrrolo[2,3-d]pyrimidin-7-yl]-phenyl}-morpholin-4-yl-methanone] the same measures were 0.0041 µM and 0.86 µM.
On to `Cc1ccc(Nc2ncc3ccn(-c4ccc(C(=O)N5CCOCC5)c(F)c4)c3n2)cc1CN1CCNCC1` [Example 336, {2-Fluoro-4-[2-(4-methyl-3-piperazin-1-ylmethyl-phenylamino)-pyrrolo[2,3-d]pyrimidin-7-yl]-phenyl}-morpholin-4-yl-methanone], for which the 50% inhibitory concentration (IC50) on GST-JAK2(808-1132) was 0.0036 µM; in test [1], 0.205 µM.
In the same order, the values of `Cc1cc(Nc2ncc3ccn(-c4ccc(CN5CCS(=O)(=O)CC5)c(F)c4)c3n2)ccc1F` [Example 125, {7-[4-(1,1-Dioxido-thiomorpholin-4-ylmethyl)-3-fluoro-phenyl]-7H-pyrrolo[2,3-d]pyrimidin-2-yl}-(4-fluoro-3-methyl-phenyl)-amine] are below 0.003 µM and 0.12 µM.
`C[C@@H]1CN(Cc2ccc(Nc3ncc4ccn(-c5cc(F)c(CN6CCOCC6)c(F)c5)c4n3)cc2)[C@@H](C)CN1` (racemic) [Example 260, [7-(3,5-Difluoro-4-morpholin-4-ylmethyl-phenyl)-7H-pyrrolo[2,3-d]pyrimidin-2-yl]-[4-((2S,5R)-2,5-dimethyl-piperazin-1-ylmethyl)-phenyl]-amine]: the figures for the IC50 (at GST-JAK2(808-1132); in test [1]) were 0.005 µM and 0.28 µM, respectively.
For `Fc1cc(-n2ccc3cnc(Nc4ccc(CN5CCNC6(CC6)C5)cc4)nc32)cc(F)c1CN1CCOCC1` [Example 256] the same measures were below 0.003 µM and 0.115 µM.
For `CN(C)CCN(C(=O)c1cccc(Nc2ncc3ccn(-c4ccc(S(C)(=O)=O)cc4)c3n2)c1)c1ccccc1` [Example 48, N-(2-Dimethylamino-ethyl)-3-[7-(4-methanesulfonyl-phenyl)-7H-pyrrolo[2,3-d]pyrimidin-2-ylamino]-N-phenyl-benzamide] the same measures were 0.027 µM and 4.21 µM.
In the same order, the values of `Cc1cc(-n2ccc3cnc(Nc4ccc(OC(C)C)cc4)nc32)ccc1C(=O)N1CCOCC1` [Example 100, {4-[2-(4-Isopropoxy-phenylamino)-pyrrolo[2,3-d]pyrimidin-7-yl]-2-methyl-phenyl}-morpholin-4-yl-methanone] are below 0.003 µM and 0.51 µM.
For the compound `CCN1CCN(Cc2ccc(Nc3ncc4ccn(-c5cc(F)c(C(=O)N6CCN(C)CC6)c(F)c5)c4n3)cc2)CC1` [Example 191, (4-{2-[4-(4-Ethyl-piperazin-1-ylmethyl)-phenylamino]-pyrrolo[2,3-d]pyrimidin-7-yl}-2,6-difluoro-phenyl)-(4-methyl-piperazin-1-yl)-methanone], the IC50 at GST-JAK2(808-1132) came out at 0.0285 µM; in test [1], 3.92 µM.
For `Cc1cc(Nc2ncc3ccn(-c4ccc(CN5CCOCC5)cc4)c3n2)ccc1F` [Example 123, (4-Fluoro-3-methyl-phenyl)-[7-(4-morpholin-4-ylmethyl-phenyl)-7H-pyrrolo[2,3-d]pyrimidin-2-yl]-amine] the same measures were 0.028 µM and 0.802 µM.
In the same order, the values of `C[C@@H]1CN(c2ccc(Nc3ncc4ccn(-c5cc(F)c(CN6CCOCC6)c(F)c5)c4n3)cn2)C[C@H](C)N1` [Example 267, [7-(3,5-Difluoro-4-morpholin-4-ylmethyl-phenyl)-7H-pyrrolo[2,3-d]pyrimidin-2-yl]-[6-(cis-3,5-dimethyl-piperazin-1-yl)-pyridin-3-yl]-amine] are below 0.003 µM and 0.05 µM.
Regarding `O=C(c1ccc(-n2ccc3cnc(Nc4ccc(F)cc4)nc32)cc1)N1CCOCC1` [Example 61, {4-[2-(4-Fluoro-phenylamino)-pyrrolo[2,3-d]pyrimidin-7-yl]-phenyl}-morpholin-4-yl-methanone], the IC50 at GST-JAK2(808-1132) stood at 0.0071 µM; in test [1], 0.835 µM.
